The source of these data is patent US10485874B2, “Hyaluronic acid modified by sphingosine-1-phosphoric acid” (priority 2014, dated 2019).

One data set concerns TUNEL-positive cells. Put plainly: Rat liver ischemia/reperfusion model: TUNEL staining of liver (apoptosis-positive cells). It counts as in vivo, Sprague-Dawley rats. How it is done: (§1) Male Sprague-Dawley (hereinbelow, SD) rats, 200 to 250 g, were obtained from CLEA Japan, Inc. (Tokyo, Japan). Four groups of SD rats were studied.
(§2) A study was conducted for a methanol-administration group, where methanol was the solvent for S1P (the content of administration:methanol (50 μl)+3% BSA (150 μl), 200 μl in total), a HA-administration group (the content of administration: 8 kDa HA dissolved in methanol:ultrapure water=1:3 at 0.32564 g/l, 200 μl in total), an S1P-administration group (the content of administration: 100 μg/kg in terms of the dose of S1P, S1P (50 μl)+3% BSA (150 μl), 200 μl in total), a HA-S1P-administration group (the content of administration: 100 μg/kg in terms of the dose of S1P, the HA-S1P formulation prepared at Hokkaido University was dissolved in methanol:ultrapure water=1:3 at 0.358 g/l, 200 μl in total).
Each agent was injected into the tail vein of rats. Ten minutes after the injection, the hepatic artery, portal vein, and bile duct were occluded at once with microclips for 20 minutes. […]
Using DeadEnd® Colorimetric TUNEL System (G7360) supplied by Promega KK, apoptosis-positive cells were immunohistochemically detected. The tissue sections of each group were evaluated. The number of TUNEL-positive cells and the total number of hepatocytes were counted in 10 randomly selected high-power fields (400×) focusing on the portal vein. […]

For data set [1], the system named is liver sinusoidal endothelial cells. Nature of the data set: Rat liver ischemia/reperfusion model: electron microscopic evaluation of the microstructure of liver. It counts as in vivo, Sprague-Dawley rats. To be noted: liver excised 120 minutes after reperfusion. How it is done: as §1, §2
Each agent was injected into the tail vein of rats. Ten minutes after the injection, the hepatic artery, portal vein, and bile duct were occluded at once with microclips for 20 minutes. Upon completion of 20 minutes of total liver ischemia, the occlusion was released. For pathological examination, liver tissues were removed from 10 to 15 rats in each group 120 minutes after reperfusion. […]
The liver sinusoidal endothelial cells after ischemia/reperfusion were evaluated with an electron microscopy. […]

The test system of the next data set is sinusoid structure. Nature of the data set: Rat liver ischemia/reperfusion model: HE staining, pathological evaluation of liver. The format is in vivo, Sprague-Dawley rats. The note with it: liver tissue 120 minutes after reperfusion; 200× field. The method, then:
as §1, §2
Each agent was injected into the tail vein of rats. Ten minutes after the injection, the hepatic artery, portal vein, and bile duct were occluded at once with microclips for 20 minutes. Upon completion of 20 minutes of total liver ischemia, the occlusion was released. […]
The liver tissues were fixed in 10% buffered formalin, and then embedded in paraffin, followed by staining with hematoxylin and eosin. The tissue sections of each group were evaluated. […]

A short description of data set [2]: Accumulation of S1P in the liver by Western blot. It counts as in vivo, rat. To be noted: Western blot with anti-S1P antibody; versus the S1P only sample. The method, then:
The expression of S1P in the liver tissues was confirmed by Western blot in accordance with the following method.
The rat liver tissues stored at −80° C. were homogenized in a buffer prepared from various reagents (150 mmol/L NaCl, 50 mM Tris-Cl, 1% NP-40, and a protease inhibitor). The resulting samples were centrifuged and the supernatants were collected for analysis. The samples thus obtained were separated using 10% SDS-PAGE gel and transferred to nitrocellulose membranes (Millipore, Bedford, Mass.). As the primary antibody, Anti-S1P antibody (ab140592) (1:1000, rabbit polyclonal, Abcam, Cambridge, UK) was used. As the secondary antibody, Anti-rabbit IgG, HRP-linked antibody (#7074S) (1:1000, Cell Signalling Technology, Beverley, Mass., USA) was used.

For another data set, the system named is HO-1. Put plainly: Rat liver ischemia/reperfusion model: Western blot of HO-1 in liver tissue. It counts as in vivo, Sprague-Dawley rats. The note with it: liver tissue 120 minutes after reperfusion. The method, then: as §1, §2
(§3) Each agent was injected into the tail vein of rats. Ten minutes after the injection, the hepatic artery, portal vein, and bile duct were occluded at once with microclips for 20 minutes. Upon completion of 20 minutes of total liver ischemia, the occlusion was released. For pathological examination, liver tissues were removed from 10 to 15 rats in each group 120 minutes after reperfusion. Also, blood was collected immediately before the injection of the agents and 30 minutes, 60 minutes, and 120 minutes after reperfusion. […]

The next data set deals with cleaved caspase 3. Put plainly: Rat liver ischemia/reperfusion model: Western blot of cleaved caspase 3 in liver tissue. It counts as in vivo, Sprague-Dawley rats. The note with it: liver tissue 120 minutes after reperfusion. The method, then: as §1, §2, §3
A general note: In western blotting, separated proteins are transferred to a membrane and probed.

Another data set has as its system serum ALT. Put plainly: Rat total liver ischemia/reperfusion model: serum ALT (liver function). The note with it: 100 μg/kg in terms of S1P via tail vein 10 min before 20 min total liver ischemia. The format is in vivo, Sprague-Dawley rats. The method, then:
as §1, §2
Each agent was injected into the tail vein of rats. Ten minutes after the injection, the hepatic artery, portal vein, and bile duct were occluded at once with microclips for 20 minutes. Upon completion of 20 minutes of total liver ischemia, the occlusion was released. For pathological examination, liver tissues were removed from 10 to 15 rats in each group 120 minutes after reperfusion. Also, blood was collected immediately before the injection of the agents and 30 minutes, 60 minutes, and 120 minutes after reperfusion.
In order to evaluate the injury of liver parenchyma, the serum ALT value was measured with an autoanalyzer (FUJI DRI-CHEM 7000V, Fujifilm, Tokyo, Japan).
Statistical analysis was conducted using the Kruskal Wallis H-test and the Mann-Whitney U test with Bonferroni correction as a post hoc test. Also, p< 0.05 was accepted to be indicative of statistical significance.
Using 200 to 250 g SD rats, four experimental groups (A) to (D) were prepared. […]

With “hyaluronic acid modified with sphingosine-1-phosphate [HA-S1P]”, in the data set on TUNEL-positive cells (400× fields centering around Zone 1, 10 fields per sample, 120 minutes after reperfusion), the “percentage of TUNEL-positive cells (TUNEL-positive cells/total number of hepatocytes)” value is given as “significantly low”. The “TUNEL staining, positive cells” value in the data set with TUNEL-positive cells (liver tissue 120 minutes after reperfusion) is “positive cells were almost unobserved”. The “microstructure of LSECs (electron microscopic images)” value in data set [1] is “undercoat structure of LSECs was maintained”. Besides, the “sinusoid structure (HE staining)” value in the data set with sinusoid structure is “sinusoid structure was maintained”. Also, in data set [2], the “expression of S1P in the liver tissues” value is reported as “higher”. For the same substance, the “expression of HO-1” value in the data set on HO-1 was “increased”. The “expression of the apoptosis-related protein cleaved caspase 3” value in the data set on cleaved caspase 3 is recorded as “inhibited”. In addition, the “serum ALT value” with serum ALT (30 minutes after reperfusion, versus vehicle and S1P groups) was “significantly lower”; in the data set on serum ALT (60 minutes after reperfusion, versus vehicle, HA and S1P groups), “significantly lower”; in the data set with serum ALT (120 minutes after reperfusion, versus HA group), “significantly lower”.
